Some test systems named below: LXFL 529 NSCLC; XF 498 CNS; RXF-631 renal; HCT-116 colon; OVCAR-5 ovarian; M19-MEL melanoma; DMS 273 small cell lung; DMS 114 small cell lung; KM20L2 colon; TK-10 renal; DLD-1 colon; SNB-78 CNS; HOP-18 NSCLC; KM12 colon.
What all share (experiment): NCI anticancer screen, dose series, 48 h

Structures are written as SMILES. Where “and” joins values, the source holds several entries; their conditions need not be identical. Identical values can stand only once.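 Values below derive from 48-hour exposures of cells grown in 96-well plates, with endpoints linearly interpolated between the two concentrations bracketing the appropriate inhibition level. The concentration for 50% growth inhibition is given as GI50. TGI is the concentration that stops growth completely.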

For `CCCCn1c(-c2ccccc2)cs/c1=N\N=C1C=C(C(C)(C)C)C(=O)C(C(C)(C)C)=C1`, the TGI in the test with LXFL 529 NSCLC, with XF 498 CNS, in the test with RXF-631 renal, in the test on HCT-116 colon, in the test on OVCAR-5 ovarian and with M19-MEL melanoma was > 100 µM throughout. Moreover, the TGI in the test on DMS 273 small cell lung, with DMS 114 small cell lung, in the test on KM20L2 colon and with TK-10 renal was > 100 µM each time.
For the molecule `C/C(=C1/N=C(c2cc([N+](=O)[O-])ccc2Cl)N(c2ccc(Br)cc2)C1=O)c1ccc(N(CCC#N)CCC#N)cc1C`, the TGI was 32.2 µM in the test with DLD-1 colon; > 100 µM with LXFL 529 NSCLC; > 100 µM in the test with XF 498 CNS; > 100 µM with RXF-631 renal; 29.5 µM with HCT-116 colon; > 100 µM in the test on OVCAR-5 ovarian. Moreover, the TGI in the test with SNB-78 CNS is > 100 µM; in the test with M19-MEL melanoma it was 92.3 µM; in the test with DMS 273 small cell lung, 43.8 µM; in the test on DMS 114 small cell lung it was 27.2 µM; with HOP-18 NSCLC, > 100 µM; in the test with KM20L2 colon, > 100 µM. Also, the TGI in the test on KM12 colon and with TK-10 renal was > 100 µM in each case.
For the molecule `CCN(CC)CCNc1c2ccccc2nc2cccc([N+](=O)[O-])c12`, the TGI in the test on LXFL 529 NSCLC was 0.0843 µM; in the test on XF 498 CNS, 0.0569 µM and 0.0196 µM; in the test on RXF-631 renal it was 0.0332 µM; in the test on HCT-116 colon it was 0.0182 µM and 0.0466 µM; in the test on OVCAR-5 ovarian it was 0.0302 µM; in the test on SNB-78 CNS it was 0.13 µM. The TGI was 0.0409 µM in the test on M19-MEL melanoma; 0.0787 µM in the test on DMS 273 small cell lung; 0.0935 µM and 0.0335 µM in the test with DMS 114 small cell lung; 0.0553 µM with KM20L2 colon; 0.0813 µM in the test with TK-10 renal. Besides, the GI50 in the test on RXF-631 renal is 0.0107 µM; with SNB-78 CNS, 0.023 µM; in the test with M19-MEL melanoma it was 0.0156 µM; with DMS 114 small cell lung it was 0.0117 µM.
Consider `CCOC(=O)/C(Br)=C1\OC(=O)c2ccccc2-c2ccccc21`, for which the TGI was > 100 µM in the test with DLD-1 colon; 99 µM in the test with LXFL 529 NSCLC; > 100 µM in the test with XF 498 CNS; > 100 µM with RXF-631 renal; > 100 µM in the test with HCT-116 colon; > 100 µM in the test with OVCAR-5 ovarian. In addition, the TGI in the test with SNB-78 CNS is > 100 µM; with M19-MEL melanoma, > 100 µM; in the test on DMS 273 small cell lung, > 100 µM; in the test on DMS 114 small cell lung, 61.7 µM; with HOP-18 NSCLC, > 100 µM; with KM12 colon, > 100 µM. Moreover, the TGI with TK-10 renal was > 100 µM.
`Nc1cn(C2OC(CC(c3ccccc3)(c3ccccc3)c3ccccc3)C(O)C2O)c(=O)[nH]c1=O` (centres undefined): the TGI with DLD-1 colon is 54.6 µM; with LXFL 529 NSCLC it was 91.8 µM; in the test on XF 498 CNS, 46.5 µM; in the test on RXF-631 renal, > 100 µM; in the test with HCT-116 colon it was 32 µM; in the test with OVCAR-5 ovarian it was > 100 µM. In addition, the TGI was > 100 µM in the test on SNB-78 CNS; 34.9 µM with M19-MEL melanoma; > 100 µM with DMS 273 small cell lung; 35.4 µM with DMS 114 small cell lung; 67.7 µM in the test with HOP-18 NSCLC; 42.1 µM in the test on KM20L2 colon. Also, the results for the TGI in the test with KM12 colon and with TK-10 renal were > 100 µM and 96.2 µM, respectively.
In the case of `CCOC(=O)/C=C/n1c2ccccc2c(=O)c2cc(OC)ccc21`, the TGI in the test on DLD-1 colon, in the test with LXFL 529 NSCLC, in the test with XF 498 CNS, with RXF-631 renal, with HCT-116 colon and in the test on OVCAR-5 ovarian was > 100 µM throughout. Also, the TGI in the test on M19-MEL melanoma, in the test with DMS 273 small cell lung, with DMS 114 small cell lung, in the test with HOP-18 NSCLC, in the test with KM20L2 colon and with KM12 colon was > 100 µM throughout. Moreover, in the test on TK-10 renal, the TGI is > 100 µM.

These data come from PubChem BioAssay (NCI).
